This is an account of results in US20150031760A1, “PHARMACEUTICAL COMPOSITION FOR PREVENTING OR TREATING NERVOUS SYSTEM DISORDERS COMPRISING SULFURETIN OR PHARMACEUTICALLY ACCEPTABLE SALT THEREOF” (Research and Business Foundation SUNGKYUNKWAN UNIVERSITY, priority 2010, published 2015).

Data set [1] is described as follows: MTT (cell viability) test, corticosterone-induced cell death in PC12 cells. The format is cell-based. Conditions: rat. The protocol: For the experiment shown in FIG. 3, PC12 cells were cultured in DMEM medium (Hyclone, Thermo, USA) containing 10% FBS, 5% horse serum and antibiotics (Gibco-BRL, USA). […] The concentration of corticosterone was determined to be 400 μM after evaluation of cell viability.

Data set [2] is described as follows: MTT (cell viability) test, induced cell death in SH-SY5Y cells. As to conditions: human. How it is done:
(§1) The incubator was maintained at a temperature of 37° C., and a mixed gas of 95% air and 5% CO2 was continuously supplied thereto to provide suitable conditions for cell culture. The cells were cultured in a 6-well plate or a 96-well plate at each of densities of 1×10^6 and 2×10^4 cells/well 24 hours before the experiment. […] Sulfuretin was used in ethanol and used at a final concentration of 0.1% or less.
To measure cell viability, an MTT reduction assay was used. An MTT solution was added to each well of the 96-well plate (in which the cells have been cultured) to a final concentration of 0.5 mg/ml. The plate was incubated in an incubator for 2 hours, and the medium and the MIT solution were removed, after which DMSO was added thereto and stirred. When DMSO was completely dissolved, the UV absorbance at 540 nm was measured using a microplate reader (Molecular device, USA).
The measured absorbance was substituted into the following equation to calculate cell viability:
Cell viability (%)=[(O.D. of control−O.D. of test group)/O.D. of control]×100

The test system of data set [3] is SH-SY5Y cells. Nature of the data set: LDH secretion (cytotoxicity) test. It counts as cell-based, human. How it is done: as §1
To measure LDH secretion (cytotoxicity), an LDH cytotoxicity assay kit was used. 50 μl of the medium was taken from each well of the 96-well plate (in which the cells have been cultured) and dispensed into each well of a fresh 96-well plate, and 50 μl of a reaction reagent was added to each well, after which the plate was shielded from light. The plate was incubated in an incubator for 30 minutes, and the UV absorbance at 490 nm was measured using a microplate reader (Molecular device, USA).
The measured absorbance was substituted into the following equation to calculate LDH secretion:
LDH secretion (%)=(LDH secretion O.D. in medium/total LDH secretion O.D.)×100

For data set [4], the system named is SH-SY5Y cells. Nature of the data set: LDH assay, amyloid beta25-35-induced cytotoxicity. The format is cell-based, human. As to conditions: 20 μM amyloid beta25-35 alone for 24 h, versus control cells (p<0.001).
The next data set relates to Tau. In words: Western blot, amyloid beta25-35-induced hyperphosphorylation of Tau. The format is cell-based, human. As to conditions: SH-SY5Y cells; 20 μM amyloid beta25-35 alone, compared with control samples (p<0.05 and p<0.01). Background: Immunoblotting shows a protein as a band on a membrane.
The subject of data set [5] is SH-SY5Y cells. In words: Inhibition of ROS production (DCFH-DA fluorescence). It counts as cell-based, human. As to conditions: hydrogen peroxide alone, 30 minutes; control 102% or less. How it is done: as §1
In order to measure ROS elimination activity, cells were labeled with DCFH-DA fluorescence, and quantitative analysis was performed using a fluorescence meter.
Specifically, the 6-well plate in which the cells have been cultured was pretreated with sulfuretin for 2 hours, and then reacted with hydrogen peroxide for 30 minutes to induce ROS. Then, 10 μl of 10 mM DCFH-DA was added to the plate and allowed to react with the cells for 30 minutes. Herein, DCFH-DA in the incubator was covered with a foil such that it would not be exposed to light. The cells that reacted with the DCFH-DA fluorescent substance were detached using cold PBS and centrifuged at 400 g for 3 minutes. The centrifugation process was repeated twice to wash the fluorescent substance. The washed cells were briefly stirred with 1 ml of PBS, and 100 μl was dispensed into each of a fresh 96-well plate. Then, fluorescence was measured at an excitation wavelength of 488 nm and an emission wavelength of 515 nm using a fluorescence meter (Perkinelmer, USA).
The measured value was substituted into the following equation to calculate ROS production:
ROS production (%)=[(O.D. of control−O.D. of test group)/O.D. of control]×100

Data set [6] has as its system SH-SY5Y cells. In words: Inhibition of intracellular [Ca2+] influx (Fura-2-AM fluorescence). As to conditions: hydrogen peroxide alone, 30 minutes; normal control 281 nM or less. It counts as cell-based, human. The protocol:
as §1
In order to measure inhibitory effects on intracellular [Ca^2+] influx caused by oxidative stress, cells were labeled with Fura-2-AM fluorescence, and quantitative analysis was carried out using a fluorescence meter. Specifically, 10 μl of 5 μM Fura-2-AM was added to each well of the 6-well plate (in which the cells have been cultured) and then allowed to react for 30 minutes. Herein, Fura-2-AM in the incubator was covered with a silver foil such that it would not be exposed to light. After completion of the incubation, the plate was pretreated with sulfuretin for 30 minutes, and then reacted with hydrogen peroxide for 30 minutes to induce the intracellular influx of [Ca^2+]. Then, the cells that reacted with the Fura-2-AM fluorescent substance were washed twice with cold HEPES and detached with HEPES. Then, the cells were centrifuged at 400 g for 3 minutes. The supernatant was removed carefully, stirred weakly with 0.5 ml of HEPES buffer, and then 150 μl was dispensed into each well of a fresh 96-well plate. The fluorescence of the sample dispensed into the fresh 96-well plate was measured at an excitation wavelength of […] and an emission wavelength of 520 nm using a fluorescence meter (Perkinelmer, USA).
The measured value was substituted into the following equation to calculate intracellular [Ca^2+] nM: […]

In data set [7] the test system is SH-SY5Y cells. Nature of the data set: Inhibition of mitochondrial membrane potential (MMP) damage (rhodamine-123). The format is cell-based, human. Conditions: hydrogen peroxide alone, 30 minutes; normal control 99% or less. The protocol:
as §1
In order to measure the inhibition of MMP damage, cells were labeled with rhodamine-123 fluorescence, and quantitative analysis was performed using a fluorescence meter. Specifically, the 6-well plate in which the cells have been cultured was pretreated with sulfuretin for 30 minutes and then reacted with hydrogen peroxide for 30 minutes to induce MMP damage. Then, 10 μl of 10 μM rhodamine-123 was added to each well of the plate and allowed to react for 30 minutes. Herein, rhodamine-123 in the incubator was covered with a silver foil such that it would not be exposed to light. The cells that reacted with the rhodamine-123 fluorescent substance were detached with cold PBS and centrifuged at 400 g for 3 minutes. The centrifugation process was repeated twice to wash the fluorescent substance. The washed cells were stirred briefly with 0.5 ml of PBS, and 100 μl was dispensed into each well of a fresh 96-well plate. The fluorescence of the cells was measured at an excitation wavelength of 480 nm and an emission wavelength of 530 nm using a fluorescence meter (Perkinelmer, USA).
The measured fluorescence was substituted into the following equation to calculate ΔΨm:
ΔΨm(%)=[(O.D. of control−O.D. of test group)/O.D. of control]×100

The subject of another data set is PARP. In words: Western blot, PARP expression. As to conditions: SH-SY5Y cells; hydrogen peroxide alone, 24 hours; normal control 100%. It counts as cell-based, human. How it is done: as §1
(§2) In order to identify the effect of sulfuretin on the expression of proteins related to dementia, Alzheimer's disease, Parkinson's disease and strokes, a Western blot test was carried out.
(§3) After 24 hours, the supernatant of each well was collected and centrifuged at 400 g for 3 minutes, and the cells were washed with cold PBS and lysed with 100 μl of T-PER lysis buffer (Thermo, USA) for 30 minutes. The lysates were centrifuged at 10000 g at 4° C. for 15 minutes, and the supernatants were stored at […] until use as test samples. Proteins were quantitatively analyzed using a BCA assay kit (Thermo, USA) and separated within 8.5-12% SDS gel and then transferred to PVDF membranes. To examine the expression of the proteins, the development of fluorescence was analyzed by enhanced chemiluminescence (ECL). Specifically, the membrane was blocked with 5% skimmed non-fat milk for 1 hour and labeled with the primary antibodies, PARP, caspase-3, phospho-p38, phospho-JNK and β-actin at 4° C. overnight. Then, the membrane was washed three times with Tris-tween buffered saline (TTBS), and then labeled with horseradish peroxidase (HRP)-conjugated anti-rabbit and anti-mouse secondary antibodies at room temperature for 1 hour. Then, the membrane was washed five times with TTBS for 10 minutes. The washed film was developed by ECL using x-ray films, and concentrations were quantitatively analyzed using quantitative analysis program (Fujifilm, Japan).

A further data set concerns caspase-3. Nature of the data set: Western blot, caspase-3 expression. It counts as cell-based, human. Conditions: SH-SY5Y cells; hydrogen peroxide alone, 24 hours; normal control 100%. The protocol: as §1, §2, §3
Another data set concerns phospho-p38. Nature of the data set: Western blot, phospho-p38 expression. The format is cell-based, human. Conditions: SH-SY5Y cells; hydrogen peroxide alone, 24 hours; normal control 100%. How it is done: as §1, §2, §3
The test system of a further data set is phospho-JNK. Nature of the data set: Western blot, phospho-JNK expression. As to conditions: SH-SY5Y cells; hydrogen peroxide alone, 24 hours; normal control 100%. It counts as cell-based, human. How it is done: as §1, §2, §3
Data set [8] has as its system mice. Nature of the data set: Scopolamine-induced cognitive impairment, spontaneous alternation behavior Y-maze test. It counts as in vivo. As to conditions: scopolamine 0.5 mg/kg, i.p., compared with the control group (p<0.05). The protocol:
(§4) Male ICR mice (4-weeks-old, 18-20 g) were purchased from Koatech Co., Ltd. (Pyongtaek, Korea). Mice were housed 10 per cage, allowed access to water and food ad libitum, and maintained in constant temperature (23±1° C.) and humidity (55±5%) conditions under a 12 hour light/dark cycle (lights on 07:00 to 19:00 h). All experiments were conducted in accord with the NIH Guide for the Care and Use of Laboratory Animals and with the approval of the Institutional Animal Care and Use Committee of Sungkyunkwan University.
The spontaneous alternation behavior was measured by Y-maze which consists of a horizontal maze (30 cm long and 5 cm wide, with walls 12 cm high) with three arms (labeled A, B, and C). The maze floor and walls are constructed of dark grey, polyvinyl plastic. Mice were initially placed within one arm, and the number of alternations (i.e., consecutive entry sequences of ABC, CAB, or BCA but not BAB) and the number of arm entries were manually recorded for each mouse over an 8 minutes period. One hour before each test, the mice were given sulfuretin (0.25, 0.5, or 1 mg/kg, p.o.). After 30 minutes, memory impairment was induced by administering scopolamine (0.5 mg/kg, i.p.). […] The percentage alternation was calculated according to the following equation: Percentage alternation=[(Number of alternations)/(Total arm entries−2)]×100. […]

Data set [9] deals with mice. In words: Scopolamine-induced learning and memory deficits, step-through passive avoidance test. The format is in vivo. As to conditions: scopolamine 0.5 mg/kg, i.p. (p<0.05). The protocol: as §4
Assessment of the training or test trials of the passive avoidance test was carried out in identical illuminated and non-illuminated compartments (12×10×12 cm) containing 2-mm stainless steel rods spaced 0.5 cm apart. A 50 W lamp positioned 1 meter above both chambers illuminated the apparatuses. Briefly, the mice underwent two separate trials, a training trial and a test trial 24 hours later. For the training trial, mice were initially placed in the clear chamber. When they entered the dark chamber, the door closed and a 3-sec electrical foot shock (0.5 mA) was delivered through the stainless steel rods. One hour before each training trial, mice were given sulfretin (0.25, 0.5, or 1 mg/kg, p.o.). After 30 minutes, memory impairment was induced by administering scopolamine (0.5 mg/kg, i.p.). Twenty-four hours after the training trial, mice were placed in the illuminated chamber for the test trial. The time for the mouse to enter the dark compartment after the door opening was defined as latency for both training and test trials. Latencies were recorded for up to 300 s. To avoid a ceiling effect in unimpaired animals, sulfuretin alone was administered 1 hour before the training trial without scopolamine treatment. The intensity of electrical foot shock was set at 0.25 mA for 3 seconds. This lower intensity shock allowed for a behavioral window through which to detect any enhancing effect of sulfuretin.

No end group written: not given here. Where only a bound is given, the exact number is not on record here.

With `C[C@]12C[C@H](O)[C@H]3[C@@H](CCC4=CC(=O)CC[C@@]43C)[C@@H]1CC[C@@H]2C(=O)CO` [corticosterone, Corticosterone, reference compound], the viability – broadly, a per cent measure of how many cells are alive, often set against a control – at 400 µM in data set [1] was not below 55%.

`NCCc1cc(O)c(O)cc1O` [6-hydroxydopamine, reference compound]: the viability at 200 µM in data set [2] is not below 69%.

As to “GSNKGAIIGLM [beta-amyloid, amyloid-beta 25-35 fragment, reference compound]”, the LDH secretion in the data set with SH-SY5Y cells [3] (beta-amyloid alone, normal control 12% or less) is on record as not below 15%. The “LDH activity (LDH release)” value in the data set on SH-SY5Y cells [4] was “increased significantly”. Further, the “phosphorylation of Tau proteins” value with Tau was “rapidly increased”.

In the case of `OO` [hydrogen peroxide, reference compound], the viability at 400 µM in data set [2] (cell viability) is not below 55%. The same molecule came in with an LDH secretion with SH-SY5Y cells [3] (hydrogen peroxide alone, normal control 11% or less) not below 80%. In the data set on SH-SY5Y cells [5], this molecule gave an ROS production not below 148%. In addition, in the data set with SH-SY5Y cells [6], the “intracellular [Ca2+] influx” value is given as not below 600 nM. Besides, in the data set with SH-SY5Y cells [7], the “MMP (ΔΨm)” value is recorded as not above 55%. The PARP expression in the data set with PARP is recorded as not above 38%. The molecule also gave a caspase-3 expression with caspase-3 not above 40%. This molecule also returned a phospho-p38 expression in the data set on phospho-p38 not below 133%. For the same molecule, the phospho-JNK expression in the data set with phospho-JNK was not below 173%.

Turning to `CN1[C@@H]2C[C@@H](OC(=O)[C@H](CO)c3ccccc3)C[C@H]1[C@@H]1O[C@@H]12` [scopolamine, reference compound], the spontaneous alternation behavior result in the data set with mice [8] was “significantly decreased”. Besides, in the data set on mice [9], the “step-through latency time (test trial)” value is “decreased”.
